Data from publication PMC3945637 (Frontiers in Pharmacology, 2014).
Where “and” joins values, the source holds several entries; their conditions need not be identical. Equal values may be shown once. Peptide text beside a SMILES is read from it.

What was measured:
[1] = target: T1, BK B2R (human umbilical vein rings) (Homo sapiens, UniProt P30411); assay: Human isolated umbilical vein contractility assay; assay type: cell-based; conditions: for reduction of contractile potency by Plummer's inhibitor: Plummer's inhibitor vs control tissues; for decrease of apparent contractile potency by ACE blockade: enalaprilat 1 μM vs paired control tissues; for +Peptidase inhibitor log(EC50) ± SE / Control (DMSO vehicle) log(EC50) ± SE: log of contractile EC50; for Control (DMSO vehicle) log(EC50) ± SE: no peptidase inhibitor, paired tissues; for fold less potent than BK as contractile agent: control conditions, vs BK
T1 construct: from tissue; host or cells: human umbilical vein rings
T1 sequence (P30411 1-391): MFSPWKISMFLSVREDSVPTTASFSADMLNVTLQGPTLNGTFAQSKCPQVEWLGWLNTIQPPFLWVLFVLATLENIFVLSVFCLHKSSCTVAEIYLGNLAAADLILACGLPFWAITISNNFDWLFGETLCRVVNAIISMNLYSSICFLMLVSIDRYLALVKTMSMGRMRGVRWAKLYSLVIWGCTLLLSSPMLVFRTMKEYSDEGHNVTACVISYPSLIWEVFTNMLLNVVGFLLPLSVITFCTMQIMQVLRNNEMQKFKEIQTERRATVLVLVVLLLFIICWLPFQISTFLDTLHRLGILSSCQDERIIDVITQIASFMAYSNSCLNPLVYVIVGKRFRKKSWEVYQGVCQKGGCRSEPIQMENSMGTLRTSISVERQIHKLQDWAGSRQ
Excerpt: The institutional research ethics board (CHU de Québec) approved the anonymous use of human umbilical cord segments obtained after elective cesarean section deliveries. Informed consent was obtained from mothers. […] Tissues were used only once and discarded; controls curves were obtained from other vascular rings from the same vein.
(§1) Results are presented as mean ± SEM. Radioligand binding data were fitted by non-linear regression to a one-site competition equation using a least-square method (Prism 4.0, GraphPad Software Inc., San Diego, CA, USA) and IC50 values calculated from this procedure. The same computer program was used to draw concentration-effect curves (least square fitting of sigmoidal dose-response equation with variable slope) and to derive contractile EC50 values. The qualitative effect of treatments on the distribution of the B2R-GFP fluorescent protein (either located at the plasma membrane or submitted to internalization) was evaluated for each HEK 293 cell in large microphotographic records and proportion of affected cells were compared using the χ^2 statistics to determine drug effect on the subcellular receptor distribution.

[2] = target: T2, rabbit B2R-green fluorescent protein (B2R-GFP) (Oryctolagus cuniculus, UniProt Q28642); assay: [3H]BK binding competition to B2R-GFP stably expressed in intact HEK 293 cells; conditions: for IC50 for B2R-GFP relative to unlabeled BK (fold greater IC50 / lower affinity): [3H]BK binding competition, vs BK; for [3H]BK binding to B2R-GFP log(IC50) ± SE: log of IC50, 3 nM [3H]BK, 0 °C, with peptidase inhibitors incl. captopril, HEK 293 cells
T2 construct: expressed in transfected cells
T2 sequence (Q28642 1-367): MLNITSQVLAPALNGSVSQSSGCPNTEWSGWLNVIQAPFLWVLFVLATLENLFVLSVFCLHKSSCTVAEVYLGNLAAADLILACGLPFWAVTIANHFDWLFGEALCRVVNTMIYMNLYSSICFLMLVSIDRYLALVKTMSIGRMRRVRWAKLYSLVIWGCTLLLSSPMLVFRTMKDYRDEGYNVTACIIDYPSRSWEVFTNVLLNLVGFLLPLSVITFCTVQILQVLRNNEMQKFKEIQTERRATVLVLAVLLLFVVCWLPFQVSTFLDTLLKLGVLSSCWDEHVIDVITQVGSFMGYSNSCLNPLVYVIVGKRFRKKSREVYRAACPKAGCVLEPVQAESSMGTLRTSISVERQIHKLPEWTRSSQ
Description: (§2) Affinity for the B2R was evaluated using a radioligand binding competition assay performed at 0 °C in the presence of peptidase inhibitors that included captopril ([Houle et al., 2000]). […] Other HEK 293a cells that transiently expressed human recombinant ACE were used to perform a [^3H]enalaprilat binding assay as described ([Koumbadinga et al., 2010]; the peACE vector was a gift from Prof. P. Corvol, Paris, France).
as §1

[3] = target: T3, human B1R (B1R-FLAG) (Homo sapiens, UniProt P46663); assay: [3H]Lys-des-Arg9-BK binding competition to B1R-FLAG transiently expressed in HEK 293a cells; conditions: for [3H]Lys-des-Arg9-BK binding to B1R-FLAG log(IC50) ± SE: log of IC50, 1 nM [3H]Lys-des-Arg9-BK, HEK 293a cells
T3 construct: FLAG; expressed in transfected cells
T3 sequence (P46663 1-353): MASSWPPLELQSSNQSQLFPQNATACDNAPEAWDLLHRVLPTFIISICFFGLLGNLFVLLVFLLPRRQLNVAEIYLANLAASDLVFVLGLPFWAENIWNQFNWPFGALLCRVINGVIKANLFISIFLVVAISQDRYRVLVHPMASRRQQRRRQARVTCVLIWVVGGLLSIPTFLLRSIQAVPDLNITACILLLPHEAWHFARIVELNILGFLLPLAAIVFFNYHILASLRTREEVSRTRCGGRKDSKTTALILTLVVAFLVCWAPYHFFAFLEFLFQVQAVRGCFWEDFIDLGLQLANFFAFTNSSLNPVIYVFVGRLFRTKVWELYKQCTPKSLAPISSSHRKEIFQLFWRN

[4] = target: T4, human recombinant ACE (Homo sapiens, UniProt P12821); assay: radioligand binding; competition of 2 nM [^3H]enalaprilat binding to HEK 293a cells transiently expressing human recombinant ACE by BK and analogs; one-site competition fit
[5] = target: rabbit B2R-green fluorescent protein (rabbit) (UniProt Q28642); assay: radioligand binding; competition of 3 nM [^3H]BK binding to adherent intact HEK 293 cells stably expressing rabbit B2R-GFP by unlabeled peptides; 0 °C; peptidase inhibitors that included captopril; one-site competition fit
[6] = target: human B1R (B1R-FLAG vector) (human) (UniProt P46663); assay: radioligand binding; competition of 1 nM [^3H]Lys-des-Arg^9-BK binding to HEK 293a cells transiently expressing human B1R (B1R-FLAG vector); one-site competition fit
[7] = target: endogenous B2 receptor of the human umbilical vein (human (endogenous in umbilical vein)) (UniProt P30411)
[8] = target: T4, human recombinant ACE; assay: [3H]enalaprilat binding competition to recombinant ACE transiently expressed in HEK 293a cells; parameters: expressed in transfected cells; host or cells: HEK 293a cells, transient expression (peACE vector, gift from Prof. P. Corvol); conditions: for fold lesser affinity vs. BK for ACE: [3H]enalaprilat binding competition; for [3H]enalaprilat binding to ACE log(IC50) ± SE: log of IC50, 2 nM [3H]enalaprilat, HEK 293a cells
Description: as §2, §1

[9] = enalaprilat 1 μM, 30 min before agonist

T4 sequence (P12821 30-1306): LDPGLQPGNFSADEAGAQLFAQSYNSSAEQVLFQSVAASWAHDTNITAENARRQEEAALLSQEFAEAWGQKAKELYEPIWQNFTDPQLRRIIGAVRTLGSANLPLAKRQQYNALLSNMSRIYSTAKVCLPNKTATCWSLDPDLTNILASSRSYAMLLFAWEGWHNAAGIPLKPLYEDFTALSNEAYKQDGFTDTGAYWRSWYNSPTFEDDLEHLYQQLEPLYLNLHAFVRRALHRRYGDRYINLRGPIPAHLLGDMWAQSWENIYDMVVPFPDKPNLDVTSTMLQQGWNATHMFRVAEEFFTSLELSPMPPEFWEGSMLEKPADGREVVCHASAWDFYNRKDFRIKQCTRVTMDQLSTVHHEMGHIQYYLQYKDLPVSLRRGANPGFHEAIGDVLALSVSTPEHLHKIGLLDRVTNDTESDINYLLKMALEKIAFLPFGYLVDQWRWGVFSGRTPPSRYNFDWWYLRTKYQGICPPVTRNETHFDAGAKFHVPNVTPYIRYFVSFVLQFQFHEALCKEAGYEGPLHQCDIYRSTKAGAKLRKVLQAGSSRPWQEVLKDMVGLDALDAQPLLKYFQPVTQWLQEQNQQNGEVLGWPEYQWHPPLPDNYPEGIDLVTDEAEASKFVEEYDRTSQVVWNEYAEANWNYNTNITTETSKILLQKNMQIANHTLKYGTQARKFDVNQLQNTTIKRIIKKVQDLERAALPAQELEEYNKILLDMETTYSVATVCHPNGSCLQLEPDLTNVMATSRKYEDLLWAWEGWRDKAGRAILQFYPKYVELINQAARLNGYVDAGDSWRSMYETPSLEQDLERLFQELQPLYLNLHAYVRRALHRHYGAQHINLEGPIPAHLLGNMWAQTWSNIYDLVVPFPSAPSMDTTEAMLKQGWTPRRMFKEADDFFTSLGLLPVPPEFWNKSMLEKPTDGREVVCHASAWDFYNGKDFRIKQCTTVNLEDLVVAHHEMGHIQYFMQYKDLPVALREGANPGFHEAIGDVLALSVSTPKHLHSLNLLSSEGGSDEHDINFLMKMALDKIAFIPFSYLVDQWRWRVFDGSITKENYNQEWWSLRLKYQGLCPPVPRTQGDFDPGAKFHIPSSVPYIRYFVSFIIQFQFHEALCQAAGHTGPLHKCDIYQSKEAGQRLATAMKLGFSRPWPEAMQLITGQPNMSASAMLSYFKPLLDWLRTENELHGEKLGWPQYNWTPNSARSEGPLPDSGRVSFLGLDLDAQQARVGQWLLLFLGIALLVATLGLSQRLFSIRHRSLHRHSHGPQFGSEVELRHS

| Compound | reduction of contractile potency by Plummer's inhibitor [1] | decrease of apparent contractile potency by ACE blockade [1] | Control (DMSO vehicle) log(EC50) ± SE [1] | IC50 for B2R-GFP relative to unlabeled BK (fold greater IC50 / lower affinity) [2] | [3H]BK binding to B2R-GFP log(IC50) ± SE [2] | [3H]Lys-des-Arg9-BK binding to B1R-FLAG log(IC50) ± SE [3] | log(IC50) [4] | log(IC50) [5] | log(IC50) [6] | fold less potent than BK as contractile agent [1] | +Peptidase inhibitor log(EC50) ± SE [1, 9] | fold lesser affinity vs. BK for ACE [8] | [3H]enalaprilat binding to ACE log(IC50) ± SE [8] | other results |
| --- | --- | --- | --- | --- | --- | --- | --- | --- | --- | --- | --- | --- | --- | --- |
| N=C(N)NCCC[C@H](NC(=O)[C@H](Cc1ccccc1)NC(=O)[C@@H]1CCCN1C(=O)[C@H](CO)NC(=O)[C@H](Cc1ccccc1)NC(=O)CNC(=O)[C@@H]1CCCN1C(=O)[C@@H]1CCCN1C(=O)[C@@H](N)CCCNC(=N)N)C(=O)O [BK, Bradykinin, reference compound] (H-RPPGFSPFR-OH) | did not affect | not changed | – | – | – | – | – | – | – | – | – | – | – | – |
| N=C(N)NCCC[C@H](NC(=O)[C@H](CCCNC(=N)N)NC(=O)[C@H](Cc1ccccc1)NC(=O)[C@@H]1CCCN1C(=O)[C@H](CO)NC(=O)[C@H](Cc1ccccc1)NC(=O)CNC(=O)[C@@H]1CCCN1C(=O)[C@@H]1CCCN1C(=O)[C@@H](N)CCCNC(=N)N)C(=O)O [BK-Arg] (H-RPPGFSPFRR-OH; N-terminus and C-terminus assumed) | 15 fold | – | -6.67 ± 0.08 | 29 fold | -6.34 ± 0.11 | -5.12 ± 0.10 | – | – | – | – | – | – | – | +Peptidase inhibitor log(EC50) ± SE ([1]; Plummer's inhibitor 1 μM): -5.49 ± 0.07; IC50 ([3]; competition of [3H]Lys-des-Arg9-BK binding, read-out: IC50 for recombinant human B1R): 7.6 µM |
| BK-Ala-Pro (peptide) | – | – | – | – | – | – | -5.46 log M | -5.11 log M | > -5 log M | – | – | – | – | log(EC50) of contraction of the human isolated umbilical vein, with ACE blocked by enalaprilat 1 μM, Figure 3D [7]: -5.55 log M |
| C[C@H](NC(=O)[C@H](CCCNC(=N)N)NC(=O)[C@H](Cc1ccccc1)NC(=O)[C@@H]1CCCN1C(=O)[C@H](CO)NC(=O)[C@H](Cc1ccccc1)NC(=O)CNC(=O)[C@@H]1CCCN1C(=O)[C@@H]1CCCN1C(=O)[C@@H](N)CCCNC(=N)N)C(=O)N1CCC[C@H]1C(=O)O [BK-Ala-Pro] (H-RPPGFSPFRAP-OH; N-terminus and C-terminus assumed) | – | – | -6.59 ± 0.07 | – | -5.11 ± 0.16 | >-5 | – | – | – | 14.1 fold | -5.55 ± 0.06 | 2.23 fold | -5.46 ± 0.11 | – |
| CC(C)C[C@H](NC(=O)[C@H](Cc1c[nH]cn1)NC(=O)[C@H](CCCNC(=N)N)NC(=O)[C@H](Cc1ccccc1)NC(=O)[C@@H]1CCCN1C(=O)[C@H](CO)NC(=O)[C@H](Cc1ccccc1)NC(=O)CNC(=O)[C@@H]1CCCN1C(=O)[C@@H]1CCCN1C(=O)[C@@H](N)CCCNC(=N)N)C(=O)O [BK-His-Leu] (H-RPPGFSPFRHL-OH; N-terminus and C-terminus assumed) | – | 18 fold and 18.3 fold | -6.61 ± 0.11 | 363 fold | -5.24 ± 0.20 | >-5 | – | – | – | 13.5 fold | -5.34 ± 0.06 | 3.33 fold | -5.28 ± 0.22 | – |
| BK-Ser-Tyr (peptide) | – | – | – | – | – | – | -5.21 log M | -5.79 log M | > -5 log M | – | – | – | – | log(EC50) of contraction of the human isolated umbilical vein, with ACE blocked by enalaprilat 1 μM, Figure 3B [7]: -6.32 log M |
